Results reported in paper PMC11096235, “Membrane-bound chemoreception of bitter bile acids and peptides is mediated by the same subset of bitter taste receptors” (Cellular and Molecular Life Sciences: CMLS, 2024).
Peptide text beside a SMILES is read from it.

Legend:
Assay in all cases: FLIPR calcium mobilization (Fluo-4), agonist activation
Assay type in all cases: cell-based
Settings in all cases: HEK 293T-Gα16gust44 cells, pH 7.4
Tas2r29 (xtTas2r29) = target: T1, Tas2r29 (xtTas2r29) (Xenopus tropicalis, UniProt Q2AB56)
T1 construct: full length, N-terminal sst3 export tag, C-terminal hsv tag; HEK 293T-Galpha16gust44
T1 sequence (Q2AB56 1-290): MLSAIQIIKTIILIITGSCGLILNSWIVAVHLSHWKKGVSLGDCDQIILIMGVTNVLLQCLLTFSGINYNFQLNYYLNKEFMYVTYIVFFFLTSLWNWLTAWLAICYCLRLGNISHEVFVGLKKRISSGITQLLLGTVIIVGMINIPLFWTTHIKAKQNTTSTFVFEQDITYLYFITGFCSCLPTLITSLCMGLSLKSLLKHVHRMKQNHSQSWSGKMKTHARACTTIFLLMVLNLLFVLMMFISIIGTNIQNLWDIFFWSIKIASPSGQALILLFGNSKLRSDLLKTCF

[1] = target: T2, zebrafish receptor Tas2r4 (Danio rerio, UniProt Q58WW8)
T2 construct: gene tas2r203; full length, N-terminal sst3 export tag, C-terminal hsv tag; HEK 293T-Galpha16gust44
T2 sequence (Q58WW8 1-305): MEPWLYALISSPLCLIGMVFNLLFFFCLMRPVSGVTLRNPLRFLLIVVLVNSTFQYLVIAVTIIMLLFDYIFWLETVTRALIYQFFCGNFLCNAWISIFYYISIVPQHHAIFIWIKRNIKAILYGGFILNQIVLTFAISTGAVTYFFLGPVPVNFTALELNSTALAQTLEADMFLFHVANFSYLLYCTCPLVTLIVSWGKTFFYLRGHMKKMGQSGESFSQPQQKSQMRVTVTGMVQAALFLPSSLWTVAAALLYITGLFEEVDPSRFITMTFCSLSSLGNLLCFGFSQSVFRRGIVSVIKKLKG

[2] = target: T3, chicken Tas2r2 (ggTas2r2) (Gallus gallus, UniProt A0A1D5PXM6)
T3 construct: gene LOC101747503; full length, N-terminal sst3 export tag, C-terminal hsv tag; HEK 293T-Galpha16gust44
T3 sequence (A0A1D5PXM6 1-311): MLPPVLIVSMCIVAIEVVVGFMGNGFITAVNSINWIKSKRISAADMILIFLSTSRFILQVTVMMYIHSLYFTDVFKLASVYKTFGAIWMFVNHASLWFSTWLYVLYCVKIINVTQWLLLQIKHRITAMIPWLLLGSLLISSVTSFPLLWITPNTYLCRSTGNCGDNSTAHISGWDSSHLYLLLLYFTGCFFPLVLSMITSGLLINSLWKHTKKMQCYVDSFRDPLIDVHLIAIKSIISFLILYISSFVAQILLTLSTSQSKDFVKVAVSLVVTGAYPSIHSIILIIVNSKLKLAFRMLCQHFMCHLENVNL

**Q.** For `N[C@@H](Cc1c[nH]c2ccccc12)C(=O)N[C@@H](Cc1c[nH]c2ccccc12)C(=O)N[C@@H](Cc1c[nH]c2ccccc12)C(=O)O` [L-Trp-Trp-Trp] (H-Trp-Trp-Trp-OH), which dF/F (Tas2r29 (xtTas2r29)) is on record?
**A.** Tas2r29 exhibited only weak, yet significant, responses to L-Trp-Trp-Trp as well as to CA and GCA

**Q.** Which dF/F [1] does the source give for `N[C@@H](Cc1c[nH]c2ccccc12)C(=O)O` [L-Trp] here?
**A.** Subsequent testing with L- and D-Trp revealed responsiveness to these amino acids

**Q.** For `C[C@H](CCC(=O)O)[C@H]1CC[C@H]2[C@@H]3[C@H](O)C[C@@H]4C[C@H](O)CC[C@]4(C)[C@H]3C[C@H](O)[C@]12C` [cholic acid], which dF/F [2] is on record?
**A.** chicken Tas2r2 were only significant for the highest concentrations of the two bile acids
